According to patent US9345738B2, “Methods for the prevention or treatment of no-reflow following ischemia/reperfusion injury” (Stealth BioTherapeutics Corp., priority 2010, dated 2016):
Non-standard residues stand in square brackets, D forms with d. No end group written: not given here.

Tests used:
[1] = tested on: plasma membrane of several mammalian cell types; settings: Zhao et al., 2003; cited from earlier work
[2] = tested on: rabbit heart, ischemia/reperfusion insult; experiment: Rabbit model of AMI: regional myocardial ischemia (30 min CAO) and reperfusion (3 h); risk zone, no-reflow zone and infarct size; type: in vivo, New Zealand White rabbit; settings: for No-reflow/area at risk / No-reflow/area of necrosis: all hearts with AR >10% of LV, mean ± SEM; for Mean IA/AR: low dose
[3] = tested on: brain, ischemia/reperfusion insult; experiment: Mouse model of cerebral ischemia-reperfusion (occlusion of the middle cerebral artery); type: in vivo; settings: wild type mice; 2-5 mg/kg ip at 0, 6, 24 and 48 h after ischemia; predicted
Experimental: Cerebral ischemia initiates a cascade of cellular and molecular events that lead to brain damage. One such event is an anatomic zone of no-reflow. Cerebral ischemia is induced by occlusion of the right middle cerebral artery for 30 min. Wild-type (WT) mice are given either saline vehicle (Veh) (ip) or D-Arg-2′,6′-Dmt-Lys-Phe-NH2 (acetate salt) (2-5 mg/kg) at 0, 6, 24 and 48 h after ischemia. Mice are killed 3 days after ischemia. The brains are sliced transversely into 6-8 sections. The slices are photographed under ultraviolet light to identify the region of no-reflow. The areas of no-reflow in each slice are digitized using Image J (supplier Rasband WS, Image J, National Institutes of Health). The areas in each slice are multiplied by the weight of the slice and the results will summed in order to obtain the mass of the no-reflow areas.
As such, the peptide D-Arg-2′,6′-Dmt-Lys-Phe-NH2 is effective in reducing the incidence of no-reflow caused by ischemia-reperfusion in the brain.

[4] = tested on: kidney, ischemia/reperfusion insult; experiment: Rat model of renal ischemia-reperfusion; type: in vivo, Sprague Dawley rat; settings: rats; 3 mg/kg 30 min before ischemia and before reperfusion; 45 min ischemia and 24 h reperfusion; predicted
Experimental: Sprague Dawley rats (250-300 g) are assigned to three groups: (1) sham surgery group without I/R; (2) I/R+saline vehicle treatment; (3) I/R+D-Arg-2′,6′-Dmt-Lys-Phe-NH2 (acetate salt) treatment. D-Arg-2′,6′-Dmt-Lys-Phe-NH2 (acetate salt) (3 mg/kg, dissolved in saline) is administered to rats 30 min before ischemia and immediately before onset of reperfusion. The control rats are given saline alone on the same schedule. Rats are anesthetized with a mixture of ketamine (90 mg/kg, i.p.) and xylazine (4 mg/kg, i.p.). The left renal vascular pedicle is occluded temporarily using a micro-clamp for 30 or 45 min. At the end of the ischemic period, reperfusion is established by removing of the clamp. At that time, the contralateral right kidney is removed. After 24 h reperfusion, animals are sacrificed and blood samples were obtained by cardiac puncture. Renal function is determined by blood urea nitrogen (BUN) and serum creatinine (BioAssay Systems DIUR-500 and DICT-500).
Analysis of No-reflow Zones, and Necrosis. The kidneys are sliced transversely into 6-8 sections. The slices are photographed under ultraviolet light to identify the region of no reflow. The areas of no-reflow in each slice are digitized using Image J (supplier Rasband WS, Image J, National Institutes of Health). […]

[5] = tested on: anatomic zone of no-reflow in the heart; experiment: No-reflow phenomenon in humans with ST-segment elevation treated with PCI; type: in vivo, human; settings: patients; iv bolus less than 10 min before direct stenting; vs placebo; predicted
Experimental: Men and women, 18 years of age or older, who present within 6 hours after the onset of chest pain, who have ST-segment elevation of more than 0.1 mV in two contiguous leads, and for whom the clinical decision is made to treat with percutaneous coronary intervention (PCI) are eligible for enrollment. Patients are eligible for the study whether they are undergoing primary PCI or rescue PCI. Occlusion of the culprit coronary artery (Thrombolysis in Myocardial Infarction [TIMI] flow grade 0) at the time of admission is also a criterion for inclusion.
Left ventricular and coronary angiography is performed with the use of standard techniques, just before revascularization. […]
The primary end point is the size of the anatomic zone of no-reflow as assessed by one or more imaging techniques. Re-flow phenomenon is assessed using myocardial contrast echocardiography, coronary angiography, myocardial blush, coronary doppler imaging, electrocardiography, nuclear imaging single-photon emission CT, using thallium or technetium-99m, or PET. […] Post-contrast delayed enhancement is used on day 4±1, day 30±3 and 6+1.5 months after successful PCI and stenting to quantify infracted myocardium. This is defined quantitatively by an intensity of the myocardial post-contrast signal that is more than 2 SD above that in a reference region of remote, non-infarcted myocardium within the same slice. […]

mu-opioid receptor = settings: stated in the description, no data shown; cited from earlier work
[6] = Group 1, N=15, infusion from 10′ after CAO
[7] = Group 2, N=17, infusion from 20′ after CAO
[8] = Group 3, N=17, infusion from 29′ after CAO

2′,6′-Dmt-D-Arg-Phe-Lys-NH2
penetration of the plasma membrane [1]: readily penetrates the plasma membrane of several mammalian cell types in an energy-independent manner

D-Arg-2′,6′-Dmt-Lys-Phe-NH2
No-reflow/area at risk [2, 6]: 0.23 ± 0.02 | No-reflow/area of necrosis [2, 6]: 0.74 ± 0.04 | No-reflow/area at risk [2, 7]: 0.21 ± 0.03 | No-reflow/area of necrosis [2, 7]: 0.63 ± 0.05 | No-reflow/area at risk [2, 8]: 0.21 ± 0.03 | No-reflow/area of necrosis [2, 8]: 0.70 ± 0.09 | no-reflow for any given risk zone size ([2]; rabbit AMI, ANCOVA, treated groups combined vs control p=0.0085): significantly reduced | infarct size reduced by up to ([2]; rabbit AMI, in some experiments (Table 13; FIG. 5)): up to 44.7% | infarct size reduced, average ([2]; rabbit AMI, in some experiments (not shown)): 11% | Results: reduction of mean IA/AR from placebo ([2]; rabbit AMI, infusion started 10 min into 30 min of ischemia): ↓44.7% from placebo | Results: reduction of mean IA/AR from placebo ([2]; rabbit AMI, infusion started 20 min into 30 min of ischemia): ↓25.5% from placebo | Results: reduction of mean IA/AR from placebo ([2]; rabbit AMI, infusion started 30 min into ischemia immediately prior to reperfusion): ↓25.5% from placebo | Mean IA/AR ([2]; rabbit AMI, iv infusion started 10 min into 30 min of ischemia): 20.7% | Mean IA/AR ([2]; rabbit AMI, iv infusion started 20 min into 30 min of ischemia): 27.9% | Mean IA/AR ([2]; rabbit AMI, iv infusion started 30 min into ischemia immediately prior to reperfusion): 26.7% | reduction in the extent of no-reflow compared with control hearts (trend) ([2]; rabbit AMI, treated vs control): 21% | Necrotic area divided by area-at-risk (AN/AR), mean ([2]; rabbits with AR/LV >15%, all active groups combined, N=48): 0.318 | anatomic zone of no-reflow in the brain [3]: prevent or reduce the anatomic zone of no-reflow | infarct volume [3]: significant reduction in infarct volume | anatomic zone of no-reflow in the kidney [4]: prevents or reduces the anatomic zone of no-reflow | size of the anatomic zone of no-reflow [5]: smaller anatomic zone of no-reflow than that seen with placebo | mu-opioid receptor agonist activity (mu-opioid receptor): does not have mu-opioid receptor agonist activity

F[dR]FK-NH2
mu-opioid receptor agonist activity (mu-opioid receptor): does not have mu-opioid receptor agonist activity

Tyr-D-Arg-Phe-Lys-NH2
mu-opioid receptor agonist activity (mu-opioid receptor): has mu-opioid receptor agonist activity
